≈ marks a conversion by molar mass, not a printed value.
Tests used:
in vitro [1] = details: dog, MDCK-MDR1
Description: Permeability from basolateral to apical side in dog MDCK cells

[2] = biological target: T1, High affinity nerve growth factor receptor (Homo sapiens, UniProt P04629)
Description: Inhibition of human TRKA at inactive state by kinetic based analysis

[3] = biological target: BDNF/NT-3 growth factors receptor (Homo sapiens, UniProt Q16620)
Description: Inhibition of human TRKB by FLIPR assay

in vitro [4] = details: dog, MDCK
Description: Permeability from apical to basolateral side in dog MDCK cells

[5] = biological target: T1, High affinity nerve growth factor receptor; remark: listed apart in the source
Description: Inhibition of human TRKA at inactive state assessed as inhibition of substrate phosphorylation using fluorescently-labelled peptide as substrate by caliper assay

in vitro [6] = details: cat, liver microsomes
Description: Half-life in cat liver microsome

[7] = biological target: T1, High affinity nerve growth factor receptor; remark: listed apart in the source
Description: Inhibition of human TRKA at active state by kinetic based analysis

[8] = biological target: T1, High affinity nerve growth factor receptor; remark: listed apart in the source
Description: Inhibition of human TRKA by FLIPR assay

[9] = biological target: T1, High affinity nerve growth factor receptor; remark: listed apart in the source
Description: Inhibition of human TRKA at active state assessed as inhibition of substrate phosphorylation using fluorescently-labelled peptide as substrate by caliper assay

in vitro [10] = details: dog, liver microsomes
Description: Half-life in dog liver microsome

[11] = biological target: T1, High affinity nerve growth factor receptor; remark: listed apart in the source
Description: Inhibition of human TRKA kinase domain by HTRF KinEASE biochemical assay

Sequence of BDNF/NT-3 growth factors receptor (Q16620 whole entry): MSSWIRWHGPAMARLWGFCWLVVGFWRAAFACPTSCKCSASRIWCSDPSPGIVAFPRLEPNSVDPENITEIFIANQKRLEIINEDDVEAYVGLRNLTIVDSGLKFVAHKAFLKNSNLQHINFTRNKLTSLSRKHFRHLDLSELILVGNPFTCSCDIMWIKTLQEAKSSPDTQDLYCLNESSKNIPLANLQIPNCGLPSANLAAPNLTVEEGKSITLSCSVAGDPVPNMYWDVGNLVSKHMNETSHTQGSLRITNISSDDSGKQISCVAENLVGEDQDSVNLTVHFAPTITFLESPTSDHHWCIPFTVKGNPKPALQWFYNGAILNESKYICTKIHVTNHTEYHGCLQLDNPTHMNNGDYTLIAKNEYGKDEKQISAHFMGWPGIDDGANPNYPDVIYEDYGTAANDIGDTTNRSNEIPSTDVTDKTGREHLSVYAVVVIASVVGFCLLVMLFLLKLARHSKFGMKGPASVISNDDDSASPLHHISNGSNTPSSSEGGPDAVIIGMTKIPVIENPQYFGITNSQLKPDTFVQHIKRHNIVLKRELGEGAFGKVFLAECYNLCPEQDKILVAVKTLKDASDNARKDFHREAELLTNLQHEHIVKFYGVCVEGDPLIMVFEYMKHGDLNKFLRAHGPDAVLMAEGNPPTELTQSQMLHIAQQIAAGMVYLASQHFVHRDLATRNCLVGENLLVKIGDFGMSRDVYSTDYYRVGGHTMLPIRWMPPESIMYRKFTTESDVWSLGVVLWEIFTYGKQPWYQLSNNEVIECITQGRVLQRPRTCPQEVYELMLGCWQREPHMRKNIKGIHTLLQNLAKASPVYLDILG
T1 sequence (P04629 whole entry): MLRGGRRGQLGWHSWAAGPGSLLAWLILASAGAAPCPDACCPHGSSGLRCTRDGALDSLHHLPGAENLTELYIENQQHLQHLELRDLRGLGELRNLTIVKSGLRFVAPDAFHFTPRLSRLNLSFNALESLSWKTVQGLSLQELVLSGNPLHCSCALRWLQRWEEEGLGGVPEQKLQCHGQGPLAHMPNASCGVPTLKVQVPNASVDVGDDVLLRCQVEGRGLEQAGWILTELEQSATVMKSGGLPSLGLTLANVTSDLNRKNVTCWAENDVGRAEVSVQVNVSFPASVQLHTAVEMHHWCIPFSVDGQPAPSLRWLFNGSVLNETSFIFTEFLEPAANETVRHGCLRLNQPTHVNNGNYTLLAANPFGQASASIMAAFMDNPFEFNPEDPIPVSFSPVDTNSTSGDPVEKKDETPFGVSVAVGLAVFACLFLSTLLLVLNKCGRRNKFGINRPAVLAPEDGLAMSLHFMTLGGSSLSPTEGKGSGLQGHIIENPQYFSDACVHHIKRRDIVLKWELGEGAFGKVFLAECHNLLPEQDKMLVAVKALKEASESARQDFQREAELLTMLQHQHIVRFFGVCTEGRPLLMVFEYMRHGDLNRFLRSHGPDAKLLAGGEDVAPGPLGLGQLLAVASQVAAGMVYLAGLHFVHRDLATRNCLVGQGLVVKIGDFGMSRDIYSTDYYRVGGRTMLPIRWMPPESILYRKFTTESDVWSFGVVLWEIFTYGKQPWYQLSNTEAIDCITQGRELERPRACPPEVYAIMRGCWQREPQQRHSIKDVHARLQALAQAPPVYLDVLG
Description for physchem: Kinetic solubility of compound

| Structure (SMILES) | Papp B→A (in vitro [1]) [×10⁻⁶ cm/s] | Ki [2] [nM] | IC50 [3] [nM] | Papp A→B (in vitro [4]) [×10⁻⁶ cm/s] | IC50 [5] [nM] | half-life (in vitro [6]) [h] | Ki [7] [nM] | solubility kinetic (physchem) [µM] | IC50 [8] [nM] | IC50 [9] [nM] | half-life (in vitro [10]) [h] | IC50 [11] [nM] |
| --- | --- | --- | --- | --- | --- | --- | --- | --- | --- | --- | --- | --- |
| O=C(Nc1ccc(N2CCOCC2)cc1N1CCOCC1)c1cnn(-c2ccccc2)n1 | 7.6 | 1 | 15900 | 4.1 | 21 | 0.267 | 0.4 | 12.7 (≈ 5.52 µg/mL) | 170 | 45 | 1.35 | 5.2 |
| O=C(Nc1ccc(N2CCOCC2)cc1N1CCOCC1)c1cccc(Oc2ccccc2)c1 | – | – | – | – | 94 | – | – | – | – | 76 | – | – |

Now from value to compound:

| Papp B→A (in vitro [1]) [×10⁻⁶ cm/s] | Ki [2] [nM] | IC50 [3] [nM] | Papp A→B (in vitro [4]) [×10⁻⁶ cm/s] | IC50 [5] [nM] | half-life (in vitro [6]) [h] | Ki [7] [nM] | solubility kinetic (physchem) [µM] | IC50 [8] [nM] | IC50 [9] [nM] | half-life (in vitro [10]) [h] | IC50 [11] [nM] | Structure (SMILES) |
| --- | --- | --- | --- | --- | --- | --- | --- | --- | --- | --- | --- | --- |
| – | – | > 20000 | – | – | 2 | – | 15.9 (≈ 7.27 µg/mL) | > 20000 | – | 2 | 47.1 | NC(=O)c1ccc(-c2nnn(CC(=O)Nc3cc(C(F)(F)F)ccc3-n3cncn3)n2)cc1 |
| 6.4 | – | > 20000 | 4.8 | – | 2 | – | 3.5 (≈ 1.67 µg/mL) | 7500 | – | 2 | 102 | COc1ccc(-n2ncc3c(=O)n(CC(=O)Nc4cc(C(F)(F)F)ccc4Cl)cnc32)cc1 |
| – | – | > 20000 | – | > 10000 | 0.933 | – | 1.3 (≈ 0.589 µg/mL) | > 20000 | > 10000 | 1.25 | 178 | COc1ccc(Cl)cc1NC(=O)Nc1ccc2nc(NC(=O)c3ccccc3)sc2c1 |
